Like-named read-outs stand apart in the source and are kept apart here.
What was measured:
BxPCI-2 cell line = assay: ATP viability assay (CellTiter-Glo); assay type: cell-based; details: Homo sapiens; BxPCI-2 (wild type RAS); at 24h, 48h and 72h
Excerpt: (§1) The following well-characterized human pancreatic ductal adenocarcinoma cell lines (ATCC) were used: HPAF II, BxPC-3, MIA-PaCa2 and Panc-1. These cell lines were generated from patient-derived tumors and are widely used model system to study pancreatic cancer (HPAF II: Kim YW, et al. Pancreas 4: 353-362, 1989; BxPC-3: Tan MH, et al. Cancer Invest. 4: 15-23, 1986; MIA-PaCa2: Yunis AA, et al. Int. J. Cancer 19: 128-135, 1977; Pacn-1: Lieber M, et al. Int. J. Cancer 15: 741-747, 1975).
(§2) Viability assay was conducted in 96 well microtiter plates seeded with 3000 cells. Cell viability was measured using CellTiter-Glo assay (Promega), according to the manufacturer's instructions. Luminescence was measured using Victor3 FA (Perkin Elmer) microtiter plate reader. Total luminescence was normalized relative to negative control and curve fitting performed using GraphPad Prism (v6.02) software. IC50 was determined using Cell Viability assay, and data was illustrated using GraphPad Prism (version 6.02)

MIA-PaCa-2 cell line = assay: ATP viability assay (CellTiter-Glo); assay type: cell-based; details: Homo sapiens; MIA-PaCa-2 (RAS mutation); at 24h, 48h and 72h
Excerpt: as §1, §2

[1] = test system: patient-derived tumor xenograft (PDX) tumor panel; assay: 3D clonogenic assay, whole panel; assay type: cell-based, human; details: for IC50: Homo sapiens
Experimental: The anti-tumor efficacy of S1 in the patient-derived tumor xenograft (PDX) tumor panel was assessed, where the efficacy of S1 in PDX tumor panel in the 96-well format, in 10 concentrations in duplicate was performed. Colony formation of tumor cell suspensions in a soft-agar matrix was observed and quantified. The output is IC50 values and dose response-relationships based on number of colonies in control and treatment wells, as identified by an automated image analysis algorithm. Stock solution of S1 was prepared in 100% DMSO at 10 mM concentration (stored at -20°C) and reused for each experiment. Compound final test concentrations: Dilution series ½ i.e.: 50µM, 15, 5, 1.5, 0.5, 0.15, 0.05, 0.015, 0.005 and 0.0015.
Tumor xenografts (also referred to as patient-derived tumor xenografts) were passaged as subcutaneous xenografts in NMRI nu/nu mice. Tumor xenograft were removed from mice under sterile conditions, mechanically disaggregated and subsequently incubated with an enzyme cocktail consisting of collagenase type IV (41 U/mL), DNase I (125 U/mL), hyaluronidase type III (100 U/mL) and dispase II (1.0 U/mL) in RPMI 1640 medium at 37°C for 60 - 120 minutes. Cells were passed through sieves of 100 µm and 40 µm mesh size and washed with RPMI 1640 medium. The percentage of viable cells was determined in a Neubauer-hemocytometer using trypan blue exclusion. Aliquots of the cells were frozen down, and stored in liquid nitrogen.
The clonogenic assay test was carried out in 96 well plate format. For each test a frozen aliquot of tumor cells prepared from tumor xenografts was thawed and assay plates were prepared as follows: each test well contained 3 layers of equal volume, 2 layers of semi-solid medium (bottom and top layer), and one layer of medium supernatant, with or without test compound. The bottom layer consisted of 0.05 mL/well Iscove's Modified Dulbecco's Medium (Invitrogen), supplemented with 20% (v/v) fetal calf serum (Sigma), 0.01% (w/v) gentamicin (Invitrogen) and 0.75% (w/v) agar (BD Biosciences). Tumor cells were added to 0.05 mL of the same culture medium supplemented with 0.4% (w/v) agar and plated onto the bottom layer. After 24 h, test compounds were added after serial dilution in DMSO and transfer in cell culture medium, and left on the cells for the duration of the experiment (continuous exposure, 0.05 mL drug overlay). Every dish included six untreated control wells and drug-treated groups in duplicate at 10 concentrations. Cultures were incubated at 37 °C and 7.5% CO2 in a humidified atmosphere for 8 to 13 days and monitored closely for colony growth using an inverted microscope. Within this period, ex vivo tumor growth lead to the formation of colonies with a diameter of >50 µm. At the time of maximum colony formation, counts were performed with an automatic image analysis system. 24 h prior to evaluation, vital colonies were stained with a sterile aqueous solution of 2-(4-iodophenyl)-3-(4-nitrophenyl)-5-phenyltetrazolium chloride (1 mg/mL, 100 µL/well). Sigmoidal concentration-response curves were fitted to the data points obtained for each tumor model using 4 parameter non-linear curve fit (Oncotest Warehouse Software). IC50 values are reported as relative IC50 values, being the concentration of test compound that give a response (inhibition of colony formation/viability) half way between the top and bottom plateau of the sigmoidal concentration-response curve (inflection point of the curve), or as absolute IC50 values, being the concentration of test compound at the intersection of the concentration-response curves with T/C = 50%. For calculation of mean IC50 values the geometric mean was used. Results are presented as mean graph plots or heat maps (individual IC50 values relative to the geometric mean IC50 value) over all cell lines as tested.

- IC50 (BxPCI-2 cell line): 12 to 19 µM
- IC50 (MIA-PaCa-2 cell line): 12 to 19 µM
- IC50 ([1]; colony formation, mean over tumors, read-out: absolute mean IC50 value): 8.89 µM
- IC50 ([1]; colony formation, mean over tumors, read-out: relative mean IC50 value): 8.1 µM
- IC50 ([1]; geometric mean over Table 2, read-out: Mean IC50 (qeometr.) abs. IC50): 9.47 µM
- IC50 ([1]; geometric mean over Table 2, read-out: Mean IC50 (qeometr.) rel. IC50): 8.7 µM
- IC50 ([1]; most tumors tested, read-out: IC50): 2 to 15 µM
- IC50 ([1]; three tumors: BXF1352, CXF647, LXFA289, read-out: IC50): > 15 µM
- IC50 lower than the mean of all tumors ([1]; sensitive tumors BXF 1258 and LXFA 526, on average): 3 fold
SMILES: O[C@H](c1cc(-c2ccc(Cl)cc2)nc2ccccc12)[C@@H]1CCCCN1 [S1, (R)-(2-(4-chlorophenyl)quinolin-4-yl)((S)-piperidin-2-yl)methanol]
- bottom plateaus of the concentration-effect curves ([1]; range over tested xenografts): 0% to 47%
